In ChEMBL document CHEMBL5620373, “Establishment of environment-sensitive probes targeting BRD3/BRD4 for imaging and therapy of tumor” (Eur J Med Chem, 2023):
Calls of active or inactive are those of the source. The rule behind the calls is not given here.

Legend:
MCF7 [1] = test: Induction of apoptosis in human MCF7 cells assessed as increase in Bcl-2 mRNA level at 1 to 10 umol/L by qRT-PCR analysis; format: functional, cell-based; details: dose 1-10 µmol/L, TDE = time-dependent effect
[2] = Drug uptake in BRD3 silenced human MCF7 cells nucleus assessed as fluorescence intensity at 15 umol/L by acridine orange dye based analysis; format: ADME, cell-based; details: mcf7, 15 µM, dose 15 µmol/L
[3] = Fluorescent property of compound in PBS at pH 7.4 assessed as emission wavelength by microplate reader analysis; format: physicochemical; details: buffer
[4] = target: Bromodomain-containing protein 3 (Homo sapiens) (UniProt Q15059); test: Binding affinity to recombinant BRD3 (unknown origin) in PBS at pH 7.4 assessed as increase in fluorescence intensity at […] in presence of JQ1(+) by TR-FRET assay; details: time 30.0 min
[5] = target: Bromodomain-containing protein 4 (Homo sapiens) (UniProt O60885); test: Binding affinity to recombinant BRD4 (unknown origin) in PBS at pH 7.4 assessed as increase in fluorescence intensity at […] in presence of JQ1(+) by TR-FRET assay; details: time 30.0 min
[6] = Drug uptake in fixed human MCF7 cells nucleus assessed as fluorescence intensity in presence of BRD3 antibody by acridine orange dye based analysis; format: ADME, cell-based
MCF7 [7] = test: Induction of apoptosis in human MCF7 cells assessed as increase in early apoptotic cells after 48 hrs by flow cytometry analysis; format: functional, cell-based
[8] = Drug uptake in human MCF7 cells assessed as fluorescence emission by fluorescence microscopic analysis; format: ADME, cell-based
MCF7 [9] = test: Induction of apoptosis in human MCF7 cells assessed as decrease in c-Myc mRNA level at 1 to 10 umol/L by qRT-PCR analysis; format: functional, cell-based; details: dose 1-10 µmol/L, TDE = time-dependent effect
[10] = target: Bromodomain-containing protein 3 (Homo sapiens) (UniProt Q15059); test: Binding affinity to recombinant BRD3 (unknown origin) in PBS at pH 7.4 assessed as increase in fluorescence intensity measured after 30 mins by TR-FRET assay; details: dose 15.0 µmol/L
MCF7 [11] = test: Induction of apoptosis in human MCF7 cells assessed as increase in AMPK mRNA level at 1 to 10 umol/L after 48 hrs by qRT-PCR analysis; format: functional, cell-based; details: dose 1-10 µmol/L
[12] = Fluorescent property of compound in PBS at pH 7.4 assessed as excitation wavelength by microplate reader analysis; format: physicochemical; details: buffer
[13] = Drug uptake in human MCF7 cells nucleus assessed as fluorescence intensity at 15 umol/L in presence of JQ1(+) by acridine orange dye based analysis; format: ADME, cell-based; details: mcf7, 15 µM, dose 15 µmol/L
MCF7 [14] = test: Induction of apoptosis in human MCF7 cells assessed as decrease in c-Myc mRNA level after 48 hrs by qRT-PCR analysis; format: functional, cell-based; details: dose 1-10 µmol/L
MCF7 [15] = test: Induction of apoptosis in human MCF7 cells assessed as increase in AMPK mRNA level after 48 hrs by qRT-PCR analysis; format: functional, cell-based; details: dose 1-10 µmol/L
[16] = Drug uptake in fixed human MCF7 cells nucleus assessed as fluorescence intensity in presence of BRD4 antibody by acridine orange dye based analysis; format: ADME, cell-based
[17] = Drug uptake in human MCF7 cells xenografted nude mouse tumor tissue assessed as fluorescence intensity at 15 umol/L in presence of JQ1(+) by acridine orange dye based fluorescence microscopic assay; format: ADME, Neoplasm; details: in vivo, 15 µM, dose 15 µmol/L
MCF7 [18] = test: Induction of apoptosis in human MCF7 cells assessed as increase in Bcl-2 mRNA level at 1 to 10 umol/L after 48 hrs by qRT-PCR analysis; format: functional, cell-based; details: dose 1-10 µmol/L
[19] = Drug uptake in BRD4 silenced fixed human MCF7 cells nucleus assessed as fluorescence intensity at 15 umol/L by acridine orange dye based analysis; format: ADME, cell-based; details: mcf7, 15 µM, dose 15 µmol/L
[20] = Drug uptake in human MCF7 cells nucleus assessed as fluorescence intensity at 15 umol/L by acridine orange dye based analysis; format: ADME, cell-based; details: mcf7, 15 µM, dose 15 µmol/L
MCF7 [21] = test: Inhibition of cell migration in human MCF7 cells assessed as reduction in wound healing at 1 umol/L measured upto 72 hrs by scratch assay; format: functional, cell-based; details: dose 1.0 µmol/L
[22] = target: Bromodomain-containing protein 4 (Homo sapiens) (UniProt O60885); test: Binding affinity to recombinant BRD4 (unknown origin) in PBS at pH 7.4 assessed as increase in fluorescence intensity measured after 30 mins by TR-FRET assay; details: dose 0.4-3.1 µg/ml
[23] = Drug uptake in BRD4 silenced human MCF7 cells nucleus assessed as fluorescence intensity at 15 umol/L by acridine orange dye based analysis; format: ADME, cell-based; details: mcf7, 15 µM, dose 15 µmol/L
[24] = Drug uptake in human MCF7 cells xenografted nude mouse tumor tissue in presence of BRD3 antibody by immunofluorescence analysis; format: ADME, Neoplasm; details: in vivo
[25] = Drug uptake in human MCF7 cells xenografted nude mouse tumor tissue in presence of BRD4 antibody by immunofluorescence analysis; format: ADME, Neoplasm; details: in vivo
[26] = Drug uptake in human MCF7 cells xenografted mouse tumor tissue assessed as fluorescence intensity at 15 umol/L by acridine orange dye based fluorescence microscopic assay; format: ADME, cell-based; details: in vivo, 15 µM, dose 15 µmol/L
[27] = Drug uptake in HEK293 cells assessed as fluorescence emission by fluorescence microscopic analysis; format: ADME, cell-based; details: human
MCF7 [28] = test: Induction of apoptosis in human MCF7 cells assessed as decrease in c-Myc mRNA level at 1 to 10 umol/L after 48 hrs by qRT-PCR analysis; format: functional, cell-based; details: dose 1-10 µmol/L
[29] = Drug uptake in BRD3 silenced fixed human MCF7 cells nucleus assessed as fluorescence intensity at 15 umol/L by acridine orange dye based analysis; format: ADME, cell-based; details: mcf7, 15 µM, dose 15 µmol/L
MCF7 [30] = test: Inhibition of cell migration in human MCF7 cells assessed as reduction in wound healing at 10 umol/L measured upto 72 hrs by scratch assay; format: functional; details: MCF7, 72 h, dose 10 µmol/L
MCF7 [31] = test: Induction of apoptosis in human MCF7 cells assessed as increase in AMPK mRNA level at 1 to 10 umol/L by qRT-PCR analysis; format: functional, cell-based; details: dose 1-10 µmol/L, TDE = time-dependent effect
MCF7 [32] = test: Antiproliferative activity against human MCF7 cells assessed as reduction in cell viability by MTT assay; format: functional, cell-based
MCF7 [33] = test: Induction of apoptosis in human MCF7 cells assessed as increase in Bcl-2 mRNA level after 48 hrs by qRT-PCR analysis; format: functional, cell-based; details: dose 1-10 µmol/L

Sequence of Bromodomain-containing protein 3 (Homo sapiens) (Q15059 2-726 limits assumed): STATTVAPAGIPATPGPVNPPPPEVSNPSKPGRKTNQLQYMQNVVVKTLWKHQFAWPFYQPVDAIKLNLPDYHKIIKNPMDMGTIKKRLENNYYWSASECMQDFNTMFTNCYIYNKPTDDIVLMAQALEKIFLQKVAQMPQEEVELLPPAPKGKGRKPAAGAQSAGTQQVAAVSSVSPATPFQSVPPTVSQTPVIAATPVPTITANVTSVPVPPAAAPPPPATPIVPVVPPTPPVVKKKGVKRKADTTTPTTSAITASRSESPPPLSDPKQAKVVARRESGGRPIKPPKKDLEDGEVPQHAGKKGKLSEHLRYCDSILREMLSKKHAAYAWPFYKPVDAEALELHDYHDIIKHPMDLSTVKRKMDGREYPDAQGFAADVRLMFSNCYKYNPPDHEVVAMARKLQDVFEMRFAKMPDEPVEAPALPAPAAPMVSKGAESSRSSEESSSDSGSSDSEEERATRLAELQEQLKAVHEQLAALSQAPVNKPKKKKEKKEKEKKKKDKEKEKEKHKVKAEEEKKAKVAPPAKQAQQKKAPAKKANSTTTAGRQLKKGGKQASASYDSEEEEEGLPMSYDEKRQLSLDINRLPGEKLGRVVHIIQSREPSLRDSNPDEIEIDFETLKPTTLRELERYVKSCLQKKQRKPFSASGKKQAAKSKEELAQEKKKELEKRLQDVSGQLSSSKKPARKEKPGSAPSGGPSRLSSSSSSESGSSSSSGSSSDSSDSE

Structure (SMILES) | Activity (MCF7 [1]) | Activity [3] [nm] | Activity (MCF7 [7]) | Drug uptake [8] | Activity (MCF7 [9]) | Activity (MCF7 [11]) | Activity [12] [nm] | Activity (MCF7 [14]) | Activity (MCF7 [15]) | Activity (MCF7 [18]) | inhibition (MCF7 [21]) | Drug uptake [27] | Activity (MCF7 [28]) | inhibition at 10 µM (MCF7 [30]) [%] | Activity (MCF7 [31]) | Activity (MCF7 [33]) | also measured
Cc1sc2c(c1C)C(c1ccc(Cl)cc1)=N[C@@H](CC(=O)NCCCNS(=O)(=O)c1cccc3c(N(C)C)cccc13)c1nnc(C)n1-2 | Tde | 495 | Active | Active | Tde | Active | 350 | Dose-Dependent Effect | Dose-Dependent Effect | Active | Active | Not Active | Active | 100 | Tde | Dose-Dependent Effect | Drug uptake [2]: Active; Activity [4]: inactive; Activity [5]: inactive; Drug uptake [6]: Active; Activity [10]: Dose-Dependent Effect; Drug uptake [13]: Not Active; Drug uptake [16]: Active; Drug uptake [17]: Not Active; Drug uptake [19]: Active; Drug uptake [20]: Active; Activity [22]: Dose-Dependent Effect; Drug uptake [23]: Active; Drug uptake [24]: Active; Drug uptake [25]: Active; Drug uptake [26]: Active; Drug uptake [29]: Active; Activity (MCF7 [32]): Active
Cc1sc2c(c1C)C(c1ccc(Cl)cc1)=N[C@@H](CC(=O)OC(C)(C)C)c1nnc(C)n1-2 | Tde |  | Active |  | Tde | Active |  | Dose-Dependent Effect | Dose-Dependent Effect | Active | Active |  | Active | 100 | Tde | Dose-Dependent Effect | 
Cc1sc2c(c1C)C(c1ccc(Cl)cc1)=N[C@@H](CC(=O)NCCCCCNS(=O)(=O)c1cccc3c(N(C)C)cccc13)c1nnc(C)n1-2 |  | 495 |  | Active |  |  | 350 |  |  |  |  | Not Active |  |  |  |  | 
Cc1sc2c(c1C)C(c1ccc(Cl)cc1)=N[C@@H](CC(=O)NCCCCNS(=O)(=O)c1cccc3c(N(C)C)cccc13)c1nnc(C)n1-2 |  | 495 |  | Active |  |  | 350 |  |  |  |  | Not Active |  |  |  |  | 
